Laboratory results published in US4487924A, “2'-N-β-Lysyl) aminoglycosides” (Kowa Company, Ltd., priority 1982, dated 1984).
≈ marks a conversion by molar mass, not a printed value. Read-outs that look alike come from different tables or passages of the source.

Key:
Test in all cases: Antibiotic activity (MIC), Table 1
Type in all cases: cell-based
[1] = system: P. aerugionosa TK-157 (APH(3')-II); details: read-out: MIC
[2] = system: K. pneumoniae 4687 (AAD(2")); details: Klebsiella pneumoniae, read-out: MIC
[3] = system: P. aeruginosa RST-1 (AAC(3)-III); details: Pseudomonas aeruginosa, read-out: MIC
P. putida IID 5121 = details: Pseudomonas putida, IID5121, P. putida IID 5121; read-out: MIC
S. aureus 209P JC-1 = details: Staphylococcus aureus, 209P, read-out: MIC
P. vulgaris IID 874 = system: P. vulgaris IID 874
E. coli JR 88 (AAC(3)-I) = details: Escherichia coli, read-out: MIC
[4] = system: P. aeruginosa GN315 (AAC(6')-IV); details: Pseudomonas aeruginosa, GN315, P. aeruginosa GN315 (AAC(6')-IV); read-out: MIC
S. marcescens NHL = details: Serratia marcescens, read-out: MIC
S. faecalis Imanari = details: Enterococcus faecalis, read-out: MIC
[5] = system: P. inconstans GN1554 (AAC(2')); details: Providencia alcalifaciens, GN1554, P. inconstans GN1554 (AAC(2')); read-out: MIC
[6] = system: P. aeruginosa 99 (AAC(3)-I); details: Pseudomonas aeruginosa, read-out: MIC
[7] = system: P. aeruginosa TI 13 (APH(3')-I); details: Pseudomonas aeruginosa
P. inconstans 93 = system: P. inconstans 93
K. pneumoniae PCI 602 = details: Klebsiella pneumoniae, PCI602, K. pneumoniae PCI 602; read-out: MIC
P. cepacia 11D 1340 = details: Burkholderia cepacia, 11D1340, read-out: MIC
E. coli R176 (AAC(3)-II) = details: Escherichia coli, read-out: MIC
B. subtilis ATCC 6633 = details: Bacillus subtilis, ATCC6633, B. subtilis ATCC 6633; read-out: MIC
E. cloacae IID 977 = details: Enterobacter cloacae, IID977, E. cloacae IID 977; read-out: MIC
P. maltophilia IID 1275 = details: Stenotrophomonas maltophilia, IID1275, P. maltophilia IID 1275; read-out: MIC
E. coli ML 1410 = details: Escherichia coli, ML1410, E. coli ML 1410; read-out: MIC
E. coli NIHJ JC-2 = details: Escherichia coli, NIHJJC2, E. coli NIHJ JC-2; read-out: MIC
P. aeruginosa NCTC 10490 = details: Pseudomonas aeruginosa, NCTC10490, P. aeruginosa NCTC 10490; read-out: MIC
[8] = system: E. coli ML 1410 R81 (APH(3')-I); details: Escherichia coli
[9] = system: E. coli ML 1410 R83 (APH(3')-II); details: Escherichia coli
[10] = system: E. coli ML 1410 R102 (AAD(2")); details: Escherichia coli
[11] = system: E. coli ML 1410 R82 (AAD(3")); details: Escherichia coli
[12] = Proteus vulgaris, IID874, P. vulgaris IID 874, read-out: MIC
[13] = Providencia alcalifaciens, 93, P. inconstans 93, read-out: MIC

In the case of `CNCC1CCC(NC(=O)C[C@@H](N)CCCN)C(OC2C(N)CC(OC)C(NC)C2O)O1` (stereo partly drawn) [2'-N-β-Lysyl KA-7038VI, 2'-N-(L-β-lysyl)-KA-7038VI], the MIC [1] is reported as 25 µg/mL (≈ 54.3 µM), the MIC [2] is reported as 3.13 µg/mL (≈ 6.8 µM) and the MIC [3] is reported as > 100 µg/mL. For the same compound, the MIC (P. putida IID 5121) was 12.5 µg/mL (≈ 27.1 µM), the MIC (S. aureus 209P JC-1) was 0.78 µg/mL (≈ 1.69 µM) and the MIC (P. vulgaris IID 874; [12]) was 25 µg/mL (≈ 54.3 µM). For the same compound, the MIC (E. coli JR 88 (AAC(3)-I)) was 3.13 µg/mL (≈ 6.8 µM), the MIC [4] was 100 µg/mL (≈ 217 µM) and the MIC (S. marcescens NHL) was 0.78 µg/mL (≈ 1.69 µM). The MIC (S. faecalis Imanari) was 1.56 µg/mL (≈ 3.39 µM), the MIC [5] was 0.78 µg/mL (≈ 1.69 µM) and the MIC [6] was > 100 µg/mL. For the same compound, the MIC [7] was 25 µg/mL (≈ 54.3 µM), the MIC (P. inconstans 93; [13]) was 0.78 µg/mL (≈ 1.69 µM) and the MIC (K. pneumoniae PCI 602) was 0.78 µg/mL (≈ 1.69 µM). For the same compound, the MIC (P. cepacia 11D 1340) was > 100 µg/mL, the MIC (E. coli R176 (AAC(3)-II)) was 1.56 µg/mL (≈ 3.39 µM) and the MIC (B. subtilis ATCC 6633) was 3.13 µg/mL (≈ 6.8 µM). For the same compound, the MIC (E. cloacae IID 977) was 6.25 µg/mL (≈ 13.6 µM), the MIC (P. maltophilia IID 1275) was 1.56 µg/mL (≈ 3.39 µM) and the MIC (E. coli ML 1410) was 1.56 µg/mL (≈ 3.39 µM). It also gave an MIC (E. coli NIHJ JC-2) of 1.56 µg/mL (≈ 3.39 µM) and an MIC (P. aeruginosa NCTC 10490) of 12.5 µg/mL (≈ 27.1 µM).

In the case of `CNCC1CCC(N)C(OC2C(N)CC(OC)C(NC)C2O)O1` (stereo not shown) [KA-7038VI, reference compound], the MIC [1] is reported as > 100 µg/mL, the MIC [2] is reported as > 100 µg/mL and the MIC [3] is reported as > 100 µg/mL. For the same compound, the MIC (P. putida IID 5121) was > 100 µg/mL, the MIC (S. aureus 209P JC-1) was 25 µg/mL (≈ 75.2 µM) and the MIC (P. vulgaris IID 874; [12]) was 50 µg/mL (≈ 150 µM). The MIC [8] was > 100 µg/mL, the MIC (E. coli JR 88 (AAC(3)-I)) was > 100 µg/mL and the MIC [4] was > 100 µg/mL. For the same compound, the MIC (S. marcescens NHL) was > 100 µg/mL, the MIC (S. faecalis Imanari) was 100 µg/mL (≈ 301 µM) and the MIC [5] was > 100 µg/mL. The MIC [6] was > 100 µg/mL, the MIC [7] was 100 µg/mL (≈ 301 µM) and the MIC (P. inconstans 93; [13]) was > 100 µg/mL. The MIC (K. pneumoniae PCI 602) was 100 µg/mL (≈ 301 µM), the MIC (P. cepacia 11D 1340) was > 100 µg/mL and the MIC [9] was > 100 µg/mL. For the same compound, the MIC (E. coli R176 (AAC(3)-II)) was > 100 µg/mL, the MIC [10] was 100 µg/mL (≈ 301 µM) and the MIC (B. subtilis ATCC 6633) was 6.25 µg/mL (≈ 18.8 µM). For the same compound, the MIC (E. cloacae IID 977) was > 100 µg/mL, the MIC (P. maltophilia IID 1275) was > 100 µg/mL and the MIC (E. coli ML 1410) was > 100 µg/mL. For the same compound, the MIC (E. coli NIHJ JC-2) was 50 µg/mL (≈ 150 µM), the MIC (P. aeruginosa NCTC 10490) was > 100 µg/mL and the MIC [11] was > 100 µg/mL.

`CNC1C(O)CC(N)C(OC2OC(C(C)N)CCC2NC(=O)C[C@@H](N)CCCN)C1O` (stereo partly drawn) [2'-N-β-Lysyl 5-de-O-Me KA-6606VIII, 2'-N-(L-β-lysyl)-5-de-O-methyl-KA-6606VIII] was tested, and the MIC [1] was 50 µg/mL (≈ 112 µM), the MIC [2] was 12.5 µg/mL (≈ 28 µM) and the MIC [3] was > 100 µg/mL. For the same compound, the MIC (P. putida IID 5121) was 12.5 µg/mL (≈ 28 µM), the MIC (S. aureus 209P JC-1) was 0.78 µg/mL (≈ 1.75 µM) and the MIC (P. vulgaris IID 874; P. vulgaris IID 874) was 100 µg/mL (≈ 224 µM). The MIC (E. coli JR 88 (AAC(3)-I)) was 6.25 µg/mL (≈ 14 µM), the MIC [4] was > 100 µg/mL and the MIC (S. marcescens NHL) was 6.25 µg/mL (≈ 14 µM). For the same compound, the MIC (S. faecalis Imanari) was 3.13 µg/mL (≈ 7.01 µM), the MIC [5] was 1.56 µg/mL (≈ 3.49 µM) and the MIC [6] was > 100 µg/mL. For the same compound, the MIC [7] was 50 µg/mL (≈ 112 µM), the MIC (P. inconstans 93; P. inconstans 93) was 3.13 µg/mL (≈ 7.01 µM) and the MIC (K. pneumoniae PCI 602) was 0.78 µg/mL (≈ 1.75 µM). For the same compound, the MIC (P. cepacia 11D 1340) was > 100 µg/mL, the MIC (E. coli R176 (AAC(3)-II)) was 6.25 µg/mL (≈ 14 µM) and the MIC (B. subtilis ATCC 6633) was 3.13 µg/mL (≈ 7.01 µM). It also gave an MIC (E. cloacae IID 977) of 25 µg/mL (≈ 56 µM), an MIC (P. maltophilia IID 1275) of 1.56 µg/mL (≈ 3.49 µM) and an MIC (E. coli ML 1410) of 6.25 µg/mL (≈ 14 µM). For the same compound, the MIC (E. coli NIHJ JC-2) was 6.25 µg/mL (≈ 14 µM) and the MIC (P. aeruginosa NCTC 10490) was 50 µg/mL (≈ 112 µM).
